Test results as given in patent EP0555351B1, “OXYSULFONYL CARBAMATES” (WARNER-LAMBERT COMPANY, priority 1990, dated 1992).
Where a name gives a salt, the structure may show the parent alone. Read-outs that look alike come from different tables or passages of the source.

How the values were obtained:
male Sprague-Dawley rats = assay: in vivo screen APCC: blood cholesterol in rats after one night on a high fat, high cholesterol diet (PCC); details: blood cholesterol vs vehicle (CMC/Tween), dosed at 4 PM, PCC diet containing 0.5% cholic acid overnight, sacrificed at 8 AM, dose not given
Source text: In one in vivo screen designated APCC, male Sprague-Dawley rats (200 to 225 g) were randomly divided into treatment groups and dosed at 4 PM with either vehicle (CMC/Tween) or suspensions of compounds in vehicle. The normal chow diet was then replaced with a high fat, high cholesterol diet (designated PCC) containing 0.5% cholic acid. The rats consumed this diet ad libitum during the night and were sacrificed at 8 AM to obtain blood samples for cholesterol analysis using standard procedures. Statistical differences between mean cholesterol values for the same vehicle were determined using analysis of variance followed by Fisher's least significant test.

[1] = target: acyl-CoA: cholesterol acyltransferase (ACAT); assay: in vitro ACAT inhibition test (IAI): formation of radiolabeled cholesterol oleate from radiolabeled oleic acid in intestinal microsomes; format: biochemical; details: tissue preparation containing rabbit intestinal microsomes, concentration required to inhibit the activity of the enzyme by 50%, read-out: IAI IC₅₀
Method: The ability of representative compounds of the present invention to inhibit ACAT was measured using an in vitro test more fully described in F. J. Field and R. G. Salone, Biochemica et Biophysica 712:557-570 (1982). The test assesses the ability of a test compound to inhibit the acylation of cholesterol by oleic acid by measuring the amount of radiolabeled cholesterol oleate formed from radiolabeled oleic acid in a tissue preparation containing rabbit intestinal microsomes.
The data appear in Table 1 where they are expressed in IC₅₀ values; i.e., the concentration of test compound required to inhibit the activity of the enzyme by 50%.

Row | SMILES | % Change (mg/dl) (male Sprague-Dawley rats) | IC50 [1] | further results
1 | CC(C)c1cccc(C(C)C)c1OC(=O)NS(=O)(=O)Oc1c(C(C)C)cccc1C(C)C [Example 1, 2,6-Bis(1-methylethyl)phenyl[[2,6-bis(1-methylethyl)phenoxy]sulfonyl]carbamate] | -70% |  | 
2 | Cc1cc(C(C)(C)C)c(OC(=O)NS(=O)(=O)Oc2ccccc2)c(C(C)(C)C)c1 [Example 2, 2,6-Bis(1,1-dimethylethyl)-4-methylphenyl(phenoxysulfonyl)carbamate] | -65% |  | 
3 | CCCCCCOS(=O)(=O)NC(=O)Oc1c(C(C)(C)C)cc(C)cc1C(C)(C)C [Example 3, 2,6-Bis(1,1-dimethylethyl)-4-methylphenyl[(hexyloxy)sulfonyl]carbamate] | -56% |  | 
4 | CCCCCCCCCCCCOS(=O)(=O)NC(=O)Oc1c(C(C)(C)C)cc(C)cc1C(C)(C)C [Example 4] | -65% | 52 µM | 
5 | CCCCCCCCCCCCOC(=O)NS(=O)(=O)Oc1c(C(C)C)cccc1C(C)C [Example 5, Dodecyl [[2,6-bis(1-methylethyl)phenoxy]sulfonyl]carbamate] | -62% | 13 µM | 
6 | COC(=O)NS(=O)(=O)Oc1c(C(C)C)cccc1C(C)C [Example 6, Methyl[[2,6-bis(1-methylethyl)phenoxy]sulfonyl]carbamate] |  | > 100 µM | 
7 | CCCCCCOS(=O)(=O)NC(=O)Oc1c(C(C)C)cccc1C(C)C [Example 7, 2,6-Bis(1-methylethyl)phenyl[(hexyloxy)sulfonyl]carbamate] | -52% |  | 
8 | CCCCCCCCCCCCOS(=O)(=O)NC(=O)Oc1c(C(C)C)cccc1C(C)C [Example 8] | -68% | 13 µM | 
9 | CC(C)c1cccc(C(C)C)c1OS(=O)(=O)NC(=O)Oc1c(C(C)(C)C)cccc1C(C)(C)C [Example 9, 2,6-Bis(1,1-dimethylethyl)phenyl[[2,6-bis(1-methylethyl)phenoxy]sulfonyl]carbamate] | -70% |  | 
10 | CCCCCCCCCCCCOS(=O)(=O)NC(=O)Oc1c(-c2ccccc2)cccc1-c1ccccc1 [Example 10, [1,1':3',1''-Terphenyl]-2'-yl[(dodecyloxy)sulfonyl]carbamate] | -69% | > 10 µM | 
11 | CC(C)c1cccc(C(C)C)c1OC(=O)NS(=O)(=O)Oc1ccccc1 [Example 17, 2,6-Bis(1-methylethyl)phenyl(phenoxysulfonyl)carbamate] | -26% |  | 
12 | Cc1cccc(C)c1OS(=O)(=O)NC(=O)Oc1c(C(C)C)cccc1C(C)C [Example 18, 2,6-Bis(1-methylethyl)phenyl[(2,6-dimethylphenoxy)sulfonyl]carbamate] | -58% |  | 
13 | COc1cccc(OC)c1OS(=O)(=O)NC(=O)Oc1c(C(C)C)cccc1C(C)C [Example 19, 2,6-Bis(1-methylethyl)phenyl[(2,6-dimethoxyphenoxy)sulfonyl]carbamate] | -70% |  | 
14 | CC(C)c1cccc(C(C)C)c1OC(=O)NS(=O)(=O)Oc1ccc(F)cc1F [Example 20] | -11% | 50 µM | 
15 | COc1cc(OC)c(OS(=O)(=O)NC(=O)Oc2c(C(C)C)cccc2C(C)C)c(OC)c1 [Example 21, 2,6-Bis(1-methylethyl)phenyl[(2,4,6-trimethoxyphenoxy)sulfonyl]carbamate] | -61% |  | 
16 | CC(C)c1cccc(C(C)C)c1OC(=O)NS(=O)(=O)Oc1c(F)cccc1F [Example 22] | +9% | 38 µM | 
17 | CCCCCCCCCCCCCCCCOS(=O)(=O)NC(=O)Oc1c(C(C)C)cccc1C(C)C [Example 23, 2,6-Bis(1-methylethyl)phenyl[(hexadecyloxy)sulfonyl]carbamate] | -59% |  | 
18 | CC(C)c1cccc(C(C)C)c1OC(=O)NS(=O)(=O)Oc1c(C(C)(C)C)cccc1C(C)(C)C [Example 24, 2,6-Bis(1-methylethyl)phenyl[[2,6-bis(1,1-dimethylethyl)phenoxy]sulfonyl]carbamate] | -55% |  | 
19 | COc1cccc(OC)c1OC(=O)NS(=O)(=O)Oc1c(OC)cccc1OC [Example 25, 2,6-dimethoxyphenyl[(2,6-dimethoxyphenoxy)sulfonyl]carbamate] | -10% |  | 
20 | CC(C)(C)c1cccc(C(C)(C)C)c1OC(=O)NS(=O)(=O)Oc1c(C(C)(C)C)cccc1C(C)(C)C [Example 26, 2,6-Bis(1,1-dimethylethyl)phenyl[(2,6-bis(1,1-dimethylethyl)phenoxy)sulfonyl]carbamate] | -18% |  | 
21 | CC(C)c1cccc(C(C)C)c1OC(=O)NS(=O)(=O)Oc1c(C(C)C)cccc1C(C)C [Example 27, 2,6-bis(1-methylethyl)phenyl[[2,6-bis(1-methylethyl)phenoxylsulfonyl]carbamate, 2-hydroxy-N,N,N-trimethylethanaminium salt] | -72% | 3.3 µM | 
22 | CC(C)c1cccc(C(C)C)c1OC(=O)NS(=O)(=O)Oc1c(C(C)C)cccc1C(C)C [Example 28, 2,6-bis(1-methylethyl)phenyl[[2,6-bis(1-methylethyl)phenoxy]sulfonyl]carbamate, monosodium salt] |  |  | IC50 ([1]; monosodium salt): 5.2 µM; % Change (mg/dl) (male Sprague-Dawley rats; monosodium salt): -65%
23 | CCCCCCCCCCCCOS(=O)(=O)NC(=O)Sc1c(C(C)C)cccc1C(C)C [Example 30, S-[2,6-bis(1-methylethyl)phenyl][(dodecyloxy)sulfonyl]carbamothioate] | -9% |  | 
24 | CC(C)c1cccc(C(C)C)c1OC(=O)N(C)S(=O)(=O)Oc1c(C(C)C)cccc1C(C)C [Example 31, 2,6-bis(1-methylethyl)phenyl[[2,6-bis(1-methylethyl)phenoxylsulfonyl]methyl carbamate] | -64% | 63 µM | 
